Results as given in ChEMBL document CHEMBL3774350, “The discovery of 2-substituted phenol quinazolines as potent RET kinase inhibitors with improved KDR selectivity” (Eur J Med Chem, 2016).
pIC50: −log10 of the molar value.

Tests used:
[1] = Cytotoxicity in mouse BA/F3 cells after 48 hrs by Cell titre glo-based luminescence assay; details: BaF3, 48 h
[2] = Aqueous solubility of compound by LC-MS/MS analysis; format: physicochemical

| SMILES | pIC50 [1] | solubility [2] [µM] |
| --- | --- | --- |
| COc1cc2ncnc(Nc3cccc(O)c3)c2cc1OC | < 5.00 |  |
| COc1cc2ncnc(Nc3cccc(O)c3O)c2cc1OC | < 5.00 |  |
| COc1cc2ncnc(Nc3cc(F)cc(O)c3C)c2cc1OC | < 5.00 |  |
| COc1cc2ncnc(Nc3c(F)ccc(O)c3Cl)c2cc1OC | < 5.00 |  |
| COc1cc2ncnc(Nc3cccc(O)c3Br)c2cc1OC | < 5.00 |  |
| COc1cc2ncnc(Nc3c(Cl)ccc(O)c3F)c2cc1OC | < 5.00 |  |
| COc1cc2ncnc(Nc3c(F)ccc(O)c3F)c2cc1OC | < 5.00 |  |
| COc1cc2ncnc(Nc3cccc(O)c3C)c2cc1OC | < 5.00 |  |
| COc1cc2ncnc(Nc3cccc(O)c3Cl)c2cc1OC | < 5.00 |  |
| COc1cc2ncnc(Nc3c(F)ccc(O)c3C)c2cc1OC | < 5.00 | > 100 |
| COc1cc2ncnc(Nc3cc(O)c(C)cc3F)c2cc1OC | < 6.00 |  |
